The results in this text go back to PubChem BioAssay (NCI).

Common to all, as to test: NCI tumour cell line growth inhibition, 48 h
Assay [1] has as its system OVCAR-5 ovarian.
The subject of assay [2] is MDA-MB-435.
Assay [3] concerns SK-OV-3 ovarian.
In assay [4] the test system is RPMI-8226 leukemia.
The subject of assay [5] is HCC-2998 colon.
Assay [6] concerns MDA-N.
In assay [7] the test system is HOP-92 NSCLC.
Assay [8] deals with NCI-H226 lung.
In assay [9] the test system is HCT-15 colon.
In assay [10] the test system is A549 NSCLC.
Assay [11] has as its system TK-10 renal.
The test system of assay [12] is HS 578T breast.
Assay [13] has as its system DU-145 prostate.
Assay [14] deals with M14 melanoma.
Assay [15] relates to SK-MEL-5 melanoma.
Assay [16] concerns EKVX NSCLC.

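The compound was tested at five concentrations on cells cultured in 96-well plates, with a 48-hour exposure period. At the TGI there is no net growth.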

`Nc1cc(Cl)cc2cc(Cl)cnc12`: the TGI in assay [1], in assay [2], in assay [3], in assay [4], in [5] and in [6] was greater than 100 µM each time. Also, the TGI in assay [7] is 99.3 µM; in assay [8] it was greater than 100 µM; in assay [9], greater than 100 µM; in assay [10], greater than 100 µM; in assay [11], greater than 100 µM; in assay [12], greater than 100 µM. Besides, the TGI in assay [13], in [14], in assay [15] and in assay [16] was greater than 100 µM in each case.
Regarding `C[C@]12CC[C@H]3[C@@H](CCC4=CC(=O)CC[C@@H]43)[C@@H]1CC[C@]2(O)C(N)=O`, the TGI in [1], in assay [2], in [3], in assay [4], in [5] and in assay [6] was greater than 100 µM each time. Moreover, the TGI in [7], in assay [8], in assay [9], in assay [10], in assay [11] and in assay [12] was greater than 100 µM throughout. The TGI in assay [13], in assay [14], in assay [15] and in assay [16] was greater than 100 µM in each case.
Turning to `C1C2CC3CC1CC(c1nn4c(C56CC7CC(CC(C7)C5)C6)nnc4s1)(C2)C3`, the TGI in assay [1], in assay [2], in assay [3], in [4], in assay [5] and in [6] was greater than 100 µM in each case. In addition, the TGI in assay [7], in assay [8], in assay [9], in assay [10], in [11] and in assay [12] was greater than 100 µM throughout. Moreover, the TGI in assay [13], in assay [14], in assay [15] and in [16] was greater than 100 µM each time.
On to `CC(C)C[C@H]1[C@@H](OCc2ccccc2)COS(=O)(=O)N1[C@H](C)c1ccccc1`, for which the TGI was greater than 100 µM in [1]; greater than 100 µM in assay [2]; greater than 100 µM in assay [3]; greater than 74.7 µM in assay [4]; greater than 100 µM in [5]; greater than 100 µM in assay [6]. Further, the TGI in [7], in assay [8], in assay [9], in assay [10], in assay [11] and in [12] was greater than 100 µM throughout. In addition, the TGI is greater than 100 µM in assay [13], greater than 100 µM in assay [14], greater than 64.4 µM in assay [15] and greater than 100 µM in assay [16].
`Cc1ccc2c(c1)C(=O)C1(C2)Cc2c(C)cccc2C1=O` (stereo unspecified): the TGI in [1], in [2], in assay [3], in assay [4], in [5] and in assay [6] was greater than 100 µM throughout. For the same compound, the TGI in [7], in assay [8], in assay [9], in assay [10], in [11] and in [12] was greater than 100 µM each time. Also, the TGI in assay [13], in [14], in [15] and in assay [16] was greater than 100 µM each time.
Regarding `O=C(Nc1ccc(Cl)cc1)c1cc(S(=O)(=O)Nc2n[nH]c(Nc3ccc4ccccc4c3)n2)c(SSc2cc(Cl)c(C(=O)Nc3ccc(Cl)cc3)cc2S(=O)(=O)Nc2n[nH]c(Nc3ccc4ccccc4c3)n2)cc1Cl`, the TGI in assay [1] was 50.5 µM; in [2], greater than 80.3 µM; in assay [3] it was 66.5 µM; in assay [4], greater than 74.7 µM; in assay [5], 43.7 µM; in assay [6] it was greater than 84.2 µM. The TGI in [7] is 59.8 µM; in [8], 54.4 µM; in [9], 43.7 µM; in [10], greater than 100 µM; in assay [11], 60.8 µM; in [12], greater than 100 µM. Moreover, the TGI in assay [13] is greater than 74.4 µM; in [14], 59 µM; in assay [15], 40.6 µM; in assay [16], greater than 100 µM.
With `CN1CCCC2C(c3ccccc3)C(C3=NCCCC3)C(c3ccccc3)CC21` (stereo unspecified), the TGI was greater than 100 µM in assay [1]; 36.6 µM in [2]; greater than 100 µM in assay [3]; 54.1 µM in assay [4]; 31.4 µM in [5]; 41.4 µM in [6]. Besides, the TGI was greater than 100 µM in [7]; greater than 100 µM in [8]; greater than 100 µM in assay [9]; greater than 100 µM in assay [10]; greater than 100 µM in assay [11]; 96.7 µM in assay [12]. For the same compound, the TGI in assay [13] was greater than 100 µM; in assay [14], 40.4 µM; in assay [15], 31.7 µM; in assay [16], greater than 100 µM.
Take `CC1=NN(c2cccc(S(=O)(=O)O)c2)C2(C1)C(Cl)C(=O)N2c1nc2ccccc2s1` (stereo unspecified): the TGI in assay [1] is 28.1 µM; in [2], 21.2 µM; in [3], 24.2 µM; in assay [4], 4.47 µM; in assay [5] it was 28.5 µM; in [6], 27.7 µM. Also, the TGI in [7] is 9.95 µM; in assay [8], 22.2 µM; in assay [9], 17.8 µM; in assay [10] it was 26.4 µM; in assay [11], 27.3 µM; in assay [12], greater than 80.7 µM. The TGI in assay [13] was 25.2 µM; in assay [14] it was 24.6 µM; in assay [15] it was 18.8 µM; in assay [16], 26.7 µM.
For the compound `CC1=NN(c2ccccc2)C2(C1)C(Cl)C(=O)N2c1nc2ccccc2s1` (stereo unspecified), the TGI was greater than 100 µM in [1]; greater than 100 µM in assay [2]; greater than 100 µM in [3]; 67.2 µM in assay [4]; greater than 100 µM in assay [5]; greater than 100 µM in [6]. Further, the TGI in assay [7] was greater than 100 µM; in assay [8], 85.7 µM; in assay [9], greater than 100 µM; in assay [10] it was greater than 100 µM; in assay [11], greater than 100 µM; in assay [12], greater than 100 µM. Moreover, the TGI in assay [13] was greater than 100 µM; in assay [14], greater than 100 µM; in assay [15], 73.3 µM; in assay [16] it was greater than 100 µM.
In the case of `CCOC(=O)CC[C@H](N)C(=O)N[C@@H](Cc1ccc(N(CCCl)CCCl)cc1)C(=O)OCC`, the TGI in assay [1] came to 6.78 µM; in assay [2], 2.83 µM; in assay [3] it was 4.99 µM; in assay [4] it was 28.4 µM; in [5], 2.59 µM; in [6] it was 2.57 µM. Further, the TGI in [7] is 1.62 µM; in assay [8] it was 28.8 µM; in assay [9], 3.86 µM; in assay [10], greater than 48.9 µM; in assay [11] it was 4.26 µM; in assay [12], 4.92 µM. Further, the TGI amounted to 5.56 µM in assay [13], 1.59 µM in assay [14], 3.13 µM in assay [15] and 6.11 µM in assay [16].
Regarding `Cn1c(-c2cccs2)cc(-c2cccs2)c1-c1cccs1`, the TGI in assay [1], in assay [2], in assay [3], in assay [4], in assay [5] and in assay [6] was greater than 100 µM in each case. The TGI in assay [7], in [8], in [9], in assay [10], in assay [11] and in assay [12] was greater than 100 µM in each case. Further, the TGI in [13], in assay [14], in [15] and in assay [16] was greater than 100 µM each time.
